According to patent US20140050778A1, “NUCLEIC ACID BINDING COMPOUNDS, METHODS OF MAKING, AND USE THEREOF” (UNIVERSITY OF ROCHESTER, priority 2010, published 2014):

Experiments:
[1] = test system: HSA^LR transgenic mice; experiment: MBNL1-dependent splicing in mouse myotonic dystrophy model (RT-PCR, vastus muscle); type: in vivo; conditions: 40 mg/kg intraperitoneally once per day for 5 days
Procedure: Mouse handling and experimental procedures were conducted in accordance with the Association for Assessment and Accreditation of Laboratory Animal Care. […] Age- and gender-matched HSA^LR mice (12-16 weeks old) were injected intraperitoneally with 40 mg/kg of compounds or saline alone once per day for 5 days. Mice were sacrificed one day after the last injection, and vastus muscle was obtained for splicing analysis. RNA extraction, cDNA preparation, and RT-PCR were performed as described previously. The PCR products were electrophoresed on agarose gels for separation, and scanned with a laser fluorimager (Typhoon, GE Healthcare). Quantitative analysis of amplified products was performed by ImageQuant software (Molecular Dynamics). Differences between two groups were evaluated by unpaired Student's t-test. A critical test of a compound's performance is its ability to function in vivo. DM1 has several well-studied mouse models (Gomes-Pereira et al., “Myotonic Dystrophy Mouse Models: Towards Rational Therapy Development,” Trends Mol. Med. 17:506-517 (2011), which is hereby incorporated by reference in its entirety). Compound activity in the HSA^LR mouse model, in which transgenic mice carry a long CTG repeat inserted into the human skeletal actin (HSA) gene in skeletal muscle (Mankodi, “Myotonic Dystrophy in Transgenic Mice Expressing an Expanded CUG Repeat,” Science 289:1769-1772 (2000), which is hereby incorporated by reference in its entirety) was examined. […] They also display aberrant splicing of genes, including Clcn1 and Atp2a1, which are hallmarks of nuclear transcript sequestration.

[2] = test system: HIV-1 FSS RNA (SEQ ID NO: 7); experiment: SPR binding to immobilized biotinylated RNA
Procedure: SPR binding measurements were performed on a Biacore-X instrument (Biacore, Inc., Uppsala, Sweden) with two flow channels (FC1 and FC2). 5′-Biotinylated-RNA sequences, with a C6 linker separating the biotin label from the RNA (Integrated DNA Technologies Inc.) were immobilized on streptavidin (Rockland Immunochemicals) functionalized carboxylmethyl dextran coated sensor chips (CM5, G.E. Healthcare) using EDC/NHS (Advanced ChemTech) coupling chemistry. Filtered (0.2μ), degassed and autoclaved HBS-N buffer (0.01M Hepes, pH=7.4, 0.15 M NaCl) was employed as sample and as running buffer for all SPR experiments. A typical protocol for an experiment is as follows: A CM5 sensor chip was allowed to equilibrate to room temperature and then docked into the instrument. Following priming with running buffer, FC1 and FC2 were conditioned by manual injection of 20 μL aqueous NaOH (50 mM) at a flow rate of 30 μL/min. This was repeated 3 times followed by a wash command. Next, the carboxyl groups on the sensor chip surface in both flow cells were activated separately by injecting 60 μL of freshly prepared 1:1 mixture of EDC (0.4 M) and NHS (0.1 M) at a 5 μL/min flow rate followed by a wash. […] After washing, the surface was deactivated with 60 μL injection of ethanolamine (1M, pH=8.5) at 5 μL/min. The flow cells were primed, and the streptavidin surface in FC1 alone was blocked with 30 μL of biotin (20 μM in HBS-N) at 5 μL/min. The RNA (200 nM in running buffer, HBS-N) to be immobilized was unfolded by heating above its predicted melting temperature in a heated block for 2 min and then allowed to refold by cooling gradually to room temperature. The RNA was then immobilized in FC2 alone to response units ranging from 200-1000 RU using a 5 μL/min flow rate. Representative sensorgrams for the immobilization procedure is shown in FIGS. 2A-B. Two 20 μL aliquots of NaCl (0.5 M) were injected at a 30 μL/min flow rate to remove non-specifically bound RNA. The level of RNA immobilized was noted when the baseline was stable, usually after repeated buffer injection followed by a “prime” command. Binding measurements were performed by flowing various concentrations of the compounds to be analyzed over the immobilized RNA and recording the reference-subtracted (FC2−FC1) sensorgrams. For kinetic analysis, at least five sensorgrams corresponding to different concentrations of compound (usually ranging from 0.05-1 μM in HBS-N) were obtained using flow rates of either 60 μL/min or 30 μL/min. The experimental sensorgrams were globally fitted to a 1:1 binding equation (Biaevaluation software) to obtain association rates (ka) and dissociation rates ([…]) as well as equilibrium binding constants (KD). To measure the binding stoichiometry (n), the relations in equations (1-3) below were used: […]
where RUmax is the maximum resonance response unit at saturation, RURNA is the amount RU of RNA immobilized, n is the stoichiometry, MWcompound and MWRNA are molecular weights of compound and RNA respectively, and RUeq represents the resonance response at steady-state (equilibrium). The response units at equilibrium were subjected to Scatchard binding plots of (r/Cfree vs. r). […]
SPR and fluorescence titration experiments, performed using the protocol described in Examples 3 and 4 above, except using as the target a highly conserved RNA sequence responsible for regulating the production of the Gag-Pol polyprotein via a −1 ribosomal frameshift, which occurs along a “slippery sequence” in gag-pol mRNA (SEQ ID NO: 7). This “frameshift stimulatory sequence” (or “HIV-1 FSS”) consists of an upper stemloop and a lower stem, separated by a purine bulge in the most common types of HIV (FIG. 19). For the fluorescent titration experiments, the upper stemloop of SEQ ID NO: 7 was employed. Cell uptake and toxicity studies were carried out using human fibroblasts according to Example 5 above.

[3] = test system: C5-14 cells; type: cell-based, mouse
Text: Formation of (CUG)800 RNA-MBNL1 complexes in the C5-14 cell line suppresses translation of this mRNA and, therefore, suppresses the cellular level of luciferase Inhibition of protein complexation to the (CUG)800 RNA allows translation to occur, restoring luciferase expression. A second cell line (C1-S) carrying an analogous luciferase construct lacking the CUG repeats in the 3′-UTR was used as a positive control for luciferase expression. […] It was hypothesized that binding of the compounds of the present invention to the (CUG)800 repeat in C5-14 cells would likewise promote release of the luciferase transcripts from the nucleus, resulting in increased luciferase expression and activity. In contrast, luciferase activity in positive control (C1-S) cells should not be affected by the presence of CUG RNA binding compounds. […] The fact that this effect is not observed for compounds 10 and 11 likely results from their greater selectivity for CUG repeats. Thus, CUG^exp binding compounds are capable of releasing the sequestered mRNA transcripts into the cytoplasm for translation.

[4] = test system: mouse C2C12 myoblasts; experiment: Cell permeability by fluorescence microscopy; type: cell-based; conditions: 12 h, 125 μM, intrinsic fluorescence
Procedure: For cell permeability studies, human fibroblasts or mouse myoblasts grown to 80% confluence were exposed to compounds for 12 hours in a 96 well tissue culture plate. After removal of the culture media (DMEM, with 10% FBS, 1% pen-strep (GIBCO)) the cells were washed twice with PBS to remove excess compounds. Cells were then imaged while in buffer under a fluorescence microscope (Olympus IX70) in the 96-well plate using a 460 nm emission filter.

| SMILES | improvement of Atp2a1 splicing [1] | improvement of Clcn1 splicing [1] | Residence time (t1/2) for compound binding to RNA [2] [min] | Off-rates (koff) ([2]; SPR) [s⁻¹] | On-rates (kon) ([2]; SPR) [M⁻¹ s⁻¹] | Kd ([2]; SPR, read-out: apparent KD) [µM] | concentration of total protein in cell lysates [3] | cell membrane penetration / localization [4] |
| --- | --- | --- | --- | --- | --- | --- | --- | --- |
| CCc1nc2cc3ccccc3cc2cc1C(=O)N1CCC[C@H]1C(=O)N[C@@H](C/C=C\C[C@H](NC(=O)[C@@H]1CCCN1C(=O)c1cc2cc3ccccc3cc2nc1CC)C(=O)N[C@@H](CCCCN)C(=O)NCCCN)C(=O)N[C@@H](CCCCN)C(=O)NCCCN [Compound 4] | qualitatively appeared to restore splicing | modest but statistically significant (P=0.0115) improvement | 0.7548 | 0.0153 | 11300 | 1.2425 ± 0.0006 | decreasing level of protein expression | – |
| CCc1nc2cc3ccccc3cc2cc1C(=O)N1CCC[C@H]1C(=O)N[C@@H](C/C=C/C[C@H](NC(=O)[C@@H]1CCCN1C(=O)c1cc2cc3ccccc3cc2nc1CC)C(=O)N[C@@H](CCCCN)C(=O)NCCCN)C(=O)N[C@@H](CCCCN)C(=O)NCCCN [Compound 5] | – | – | 2.939 | – | – | – | – | readily penetrate cell membranes and localize in the nucleus |
